Test results as given in paper PMC4613257, “Ile-1781-Leu and Asp-2078-Gly Mutations in ACCase Gene, Endow Cross-resistance to APP, CHD, and PPZ in Phalaris minor from Mexico” (International Journal of Molecular Sciences, 2015).
Read-outs that look alike come from different tables or passages of the source.

Target: ACCase
Conditions: read-out: I50, R biotype, both substitutions found, zygosity not given, stated gain, pH 8.3, 34 °C, 1.5 mM ATP, 5 mM MgCl2, 15 mM NaH14CO3, 5 mM acetyl-CoA
Text: ATP-dependent NaH14CO3 incorporation into acid-stable product on ACCase

Q: For `CCON=C(CC)C1=C(O)CC(c2c(C)cc(C)cc2C)CC1=O` (stereo not drawn) [tralkoxydim], which IC50 is on record?
A: The IC50 was 8.81 µM.

Q: `CC(Oc1ccc(Oc2ccc(Cl)cc2Cl)cc1)C(=O)O` (stereo not drawn) [diclofop acid] was tested. Which IC50 (table prints the methyl ester, methods list the acid) did it give?
A: The IC50 was 7.14 µM.

Q: Which IC50 does the source give for `CCc1cc(C)cc(CC)c1-c1c(OC(=O)C(C)(C)C)n2n(c1=O)CCOCC2` [pinoxaden] here?
A: The IC50 was 9.13 µM.

Q: How did the IC50 (table prints the butyl ester, methods list the acid) turn out when `C[C@@H](Oc1ccc(Oc2ccc(C#N)cc2F)cc1)C(=O)O` [cyhalofop acid] was run?
A: The IC50 was 77.7 µM.

Q: With `CC(Oc1ccc(Oc2nc3ccc(Cl)cc3o2)cc1)C(=O)O` (stereo not drawn) [Fenoxaprop acid] as the compound, how does the IC50 (table prints the ethyl ester, methods state the acid) read?
A: The IC50 was 7.85 µM.

Q: Which IC50 does the source give for `CCCC(=NOCC)C1=C(O)CC(CC(C)SCC)CC1=O` (stereo not drawn) [sethoxydim] here?
A: The IC50 was 1500 µM.
